Where “and” joins values, the source holds several entries; their conditions need not be identical. Identical values can stand only once.
Key:
[1] = GastroPlus ACAT/PBPK physico-chemical and formulation input parameters; conditions: for controlled-release dissolution profile, release: fitted to plasma profile
Excerpt: The pharmacokinetic (PK) model in adult subjects was developed using an Advanced Compartmental And Transit (ACAT)/Physiologically Based Pharmacokinetic (PBPK) model in GastroPlus™ software, Version 9.6 (SimulationPlus, Lancaster, CA, USA).
• Principle set-up of a pediatric ACAT/PBPK model in GastroPlus™ software including physico-chemical parameters, physiological parameters, and formulation factors. The ACAT model was linked to a full PBPK model in which tissue-to-plasma concentration ratios were estimated via in silico method provided by GastroPlus™ software. • Estimation of the clearance (CL) using plasma concentrations of branaplam from an open-label multi-part first-in-human proof of concept study of oral branaplam, Part 1 only. The aim of Part 1 of this study was to determine the safety and tolerability of ascending weekly doses and to estimate the maximum tolerated dose (MTD) of oral/enteral branaplam (formulation described in Example 3) in infants with Type 1 SMA. All patients had exactly 2 copies of the SMN2 gene. Patients were dosed once weekly with branaplam. The branaplam doses were escalated in subsequent cohorts until MTD was determined or when PK results confirmed that the MTD could not be reached due to a potential pharmacokinetic exposure plateau at higher doses. The starting dose referring to the free base was 6 mg/m^2 (equal to 0.3125 mg/kg). Subsequent doses were 12 mg/m^2, 24 mg/m^2, 48 mg/m^2 and 60 mg/m^2 (0.625 mg/kg, 1.25 mg/kg, 2.5 mg/kg and 3.125 mg/kg, respectively). 14 patients were enrolled in Part 1; 13 patients were exposed to branaplam. The duration of exposure ranged from 4-33 months, 7 patients remain in the study. Six of the 7 patients are receiving 60 mg/m^2, 1 patient is receiving 48 mg/m^2.
The in vivo solubility parameter for branaplam was newly assessed to consider the impact of the solubilizer cyclodextrin (CD), which is present in the currently used formulation (Example 3), on the solubility of branaplam. […]

mutant HTT protein = assay: Human PK/PD model scaled from BacHD mouse, simulations in adult patients; conditions: Scaled PD parameters (cortex)
Excerpt: For the development of a PK/PD model in adults, the adult ACAT/PBPK model (Example 1c.1) was used to predict the concentration-time course of branaplam in plasma after oral branaplam administration. The PD parameters of the population PK/PD model in mouse were scaled for brain cortex and brain striatum from BacHD mouse to human according to following assumptions: • Mutant HTT baseline level in brain (R0) was kept equal to 1. • Drug's potency (IC50) was assumed to be the same in human as in BacHD mouse. The value was not corrected by the plasma protein binding since values in mouse and human were 0.741 and 0.8 in mouse and human, respectively. • Degradation rate or fractional turnover parameter of the mutant HTT protein synthesis (kout) was scaled from BacHD mouse to human considering an allometric scaling method based on the assumption that endogenous turnover of proteins, peptides and hormones can be scaled across different species and are related to energy turnover or metabolic rates (Gabrielsson J, Hjorth S, Quantitative Pharmacology: An Introduction to Integrative Pharmacokinetic-Pharmacodynamic Analysis. Swedish Pharmaceutical Press; 1 edition (May 7, 2012)). […]

Adult ACAT/PBPK model = assay: Adult ACAT/PBPK model; parameters: species or system human; conditions: pediatric value entered
Method: To scale up the branaplam pediatric ACAT/PBPK model to an adult ACAT/PBPK model, adult CL projected from nonclinical species was applied to replace the pediatric CL, and the body weight of 70 kg was used. Dose volume was set 250 mL. The distribution parameters estimated for the pediatric patients were entered to the adult PK model. […] Model predictions of branaplam exposures after single oral administration of branaplam to adults are depicted in Table 5.

For CC1(C)CC(Oc2ccc(-c3ccc(-c4cn[nH]c4)cc3O)nn2)CC(C)(C)N1 [Compound 18, 5-(1H-pyrazol-4-yl)-2-(6-((2,2,6,6-tetramethylpiperidin-4-yl)oxy)pyridazin-3-yl)phenol], the “controlled-release dissolution profile, release” value ([1]; at 0.25 h) was 2%, the “controlled-release dissolution profile, release” value ([1]; at 1 h) was 5% and the Solubility ([1]; pH 6.8, optimized with GastroPlus on observed concentration-time data (cyclodextrin formulation), listed as branaplam) was 0.088 at pH 6.8 (Optimized value using GastroPlus ™ software mg/mL and 0.088 at pH 6.8 (Optimized value using GastroPlus ™ based mg/mL. For the same compound, the Imax (mutant HTT protein; first block) was 1, the Imax (mutant HTT protein; second block) was 1 and the Vc (Adult ACAT/PBPK model) was 3.62 (Optimized value using GastroPlus ™ based on the 1/h. The k12 (Adult ACAT/PBPK model) was 1.41 (Optimized value using GastroPlus ™ based on the 1/h and the k21 (Adult ACAT/PBPK model) was 0.144 (Optimized value using GastroPlus ™ based on the 1/h.
